# From ChEMBL document CHEMBL1124601, “Bifunctional antitumor compounds: synthesis and characterization of a Au(III)-streptonigrin complex with thiol-modulating properties” (J Med Chem, 1989)
# Assays:
# [1] = The dissociation constant at pH 8 using potentiometric titration in 100 uM of compound in 0.15 M KCl at 25 degree Centigrade; assay type: ADME; conditions: 0.15 M KCl solution
# [2] = The dissociation constant at pH 3 using potentiometric titration in 100 uM of compound in 0.15 M KCl at 25 degrees Centigrade; assay type: ADME; conditions: 0.15 M KCl solution
# [3] = The dissociation constant of the free compound in 1: 1 dioxane-water mixture.; assay type: ADME
# P388 [4] = assay: Compound concentration was evaluated in vitro to inhibit the growth of P-388 leukemia cells; assay type: functional; conditions: Mus musculus, read-out: ID50 (the source's name)
# P388 [5] = assay: In vitro concentration to inhibit the growth of P-388 leukemia cells; assay type: functional, cell-based; conditions: Mus musculus
pKa at 100 µM [1],pKa at 100 µM [2],pKa [3],IC50 (P388 [4]),Compound,ID50 (P388 [5])
6.6,4.7,6.5,0.05 µg/mL,COC1=C(N)C(=O)c2nc(-c3nc(C(=O)O)c(C)c(-c4ccc(OC)c(OC)c4O)c3N)ccc2C1=O [STREPTONIGRIN],–
–,–,–,–,"5-Amino-6-(7-amino-6-methoxy-5,8-dioxo-5,8-dihydro-quinolin-2-yl)-4-(2-hydroxy-3,4-dimethoxy-phenyl)-3-methyl-pyridine-2-carboxylic acid; compound with Gold",0.05 µg/mL
